Assays:
hNKCC1B = molecular target: T1, hNKCC1B (Homo sapiens, UniProt P55011); test: 86Rb+ uptake in hNKCC1B-expressing Xenopus laevis oocytes; format: cell-based; conditions: 5 min, corrected for uninjected oocytes, median and range of 3–7 experiments
T1 construct: expressed in transfected cells; host or cells: Xenopus laevis oocytes injected with cRNA (pXOOM vector)
T1 sequence (P55011 1-1196 isoform P55011-3): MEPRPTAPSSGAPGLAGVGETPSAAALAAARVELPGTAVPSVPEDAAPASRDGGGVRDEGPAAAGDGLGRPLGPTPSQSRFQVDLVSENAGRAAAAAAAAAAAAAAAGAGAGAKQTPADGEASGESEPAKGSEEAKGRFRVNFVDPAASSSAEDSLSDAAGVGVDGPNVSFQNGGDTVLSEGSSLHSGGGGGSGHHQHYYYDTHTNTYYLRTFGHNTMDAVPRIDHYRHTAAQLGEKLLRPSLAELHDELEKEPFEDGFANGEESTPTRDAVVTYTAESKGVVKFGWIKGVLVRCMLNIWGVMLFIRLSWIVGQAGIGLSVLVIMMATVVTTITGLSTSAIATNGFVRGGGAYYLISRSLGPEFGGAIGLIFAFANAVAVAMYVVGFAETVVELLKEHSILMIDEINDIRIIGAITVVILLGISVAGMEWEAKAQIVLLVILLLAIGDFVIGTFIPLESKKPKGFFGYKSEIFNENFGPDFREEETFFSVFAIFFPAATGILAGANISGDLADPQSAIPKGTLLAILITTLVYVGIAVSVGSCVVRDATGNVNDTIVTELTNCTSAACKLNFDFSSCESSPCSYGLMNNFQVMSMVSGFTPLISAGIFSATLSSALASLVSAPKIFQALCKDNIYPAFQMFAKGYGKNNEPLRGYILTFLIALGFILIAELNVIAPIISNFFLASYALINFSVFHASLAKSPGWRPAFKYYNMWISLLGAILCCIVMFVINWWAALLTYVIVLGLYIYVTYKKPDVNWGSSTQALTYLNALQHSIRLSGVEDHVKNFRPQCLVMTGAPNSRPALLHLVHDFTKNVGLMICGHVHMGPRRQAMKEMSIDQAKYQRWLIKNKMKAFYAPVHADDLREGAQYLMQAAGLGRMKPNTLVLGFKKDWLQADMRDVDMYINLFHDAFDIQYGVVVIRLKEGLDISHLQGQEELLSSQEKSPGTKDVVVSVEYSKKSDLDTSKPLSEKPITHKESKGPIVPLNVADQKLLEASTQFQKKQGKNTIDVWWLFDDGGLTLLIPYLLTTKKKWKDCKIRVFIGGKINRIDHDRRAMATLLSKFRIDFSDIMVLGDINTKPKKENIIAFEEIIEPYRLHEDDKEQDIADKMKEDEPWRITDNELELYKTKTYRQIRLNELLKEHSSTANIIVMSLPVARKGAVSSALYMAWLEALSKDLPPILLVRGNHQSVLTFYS
From the text: Human NKCC1A (NM_001046, obtained from Prof. Biff Forbush, Yale School of Medicine, CT) and NKCC1B (prepared by site-directed mutagenesis from hNKCC1A as described below) were subcloned into the oocytes expression vector pXOOM, linearized downstream from the poly-A segment, and in vitro transcribed using T7-mMessage Machine according to manufacturer’s instructions (Ambion, Austin, TX). cRNA was then extracted with MEGAclear (Ambion, Austin, TX) and micro-injected into defolliculated Xenopus laevis oocytes (25 ng RNA/oocyte). The oocytes were kept in Kulori medium (in mM: 90 NaCl, 1 KCl, 1 CaCl2, 1 MgCl2, 5 Hepes, pH 7.4, 182 mOsm) for 5–6 days at 19 °C prior to experiments.
To activate NKCC1A and NKCC1B prior to the ^86Rb^+ uptake measurements aimed at measuring NKCC-mediated fluxes, hNKCC1A- or hNKCC1B-expressing oocytes or uninjected control oocytes (4–13 oocytes per well) were pre-incubated for 30 min at room temperature in a K^+-free solution (containing in mM: 5 choline chloride, 95 NaCl, 1 MgCl2, 1 CaCl2, 10 Hepes, pH 7.4, 207 mOsm), which causes shrinkage of the oocyte and thus activation of NKCC1A[22]. […]
Significance of differences in transport activity of hNKCC1A or hNKCC1B expressing oocytes vs. uninjected oocytes were analyzed by the Kruskal-Wallis test followed by Dunn’s multiple comparisons test. […]

hNKCC2 isoform B = conditions: Xenopus oocytes; ref Payne et al.[57]; Isenring et al.[58]; Plata et al.[59]; Carota et al.[56]; Lykke et al.[60]; Lykke et al.[29]; read-out: IC50 (µM) NKCC2 (hB); cited from earlier work
[1] = ref [9],[10]; cited from earlier work
hNKCC1A = molecular target: T2, hNKCC1A (Homo sapiens, UniProt P55011); set-up: method as in ref Payne et al.[57]; Isenring et al.[58]; Plata et al.[59]; Carota et al.[56]; Lykke et al.[60]; Lykke et al.[29]; conditions: Xenopus oocytes; activated state; ref Payne et al.[57]; Isenring et al.[58]; Plata et al.[59]; Carota et al.[56]; Lykke et al.[60]; Lykke et al.[29]; read-out: IC50 (µM) NKCC1 (hA); cited from earlier work
T2 construct: Full-length NKCC1 (NKCC1A) comprises ~1200 amino acids; expressed in transfected cells; host or cells: Xenopus laevis oocytes injected with cRNA (pXOOM vector)
T2 sequence (P55011 1-1212): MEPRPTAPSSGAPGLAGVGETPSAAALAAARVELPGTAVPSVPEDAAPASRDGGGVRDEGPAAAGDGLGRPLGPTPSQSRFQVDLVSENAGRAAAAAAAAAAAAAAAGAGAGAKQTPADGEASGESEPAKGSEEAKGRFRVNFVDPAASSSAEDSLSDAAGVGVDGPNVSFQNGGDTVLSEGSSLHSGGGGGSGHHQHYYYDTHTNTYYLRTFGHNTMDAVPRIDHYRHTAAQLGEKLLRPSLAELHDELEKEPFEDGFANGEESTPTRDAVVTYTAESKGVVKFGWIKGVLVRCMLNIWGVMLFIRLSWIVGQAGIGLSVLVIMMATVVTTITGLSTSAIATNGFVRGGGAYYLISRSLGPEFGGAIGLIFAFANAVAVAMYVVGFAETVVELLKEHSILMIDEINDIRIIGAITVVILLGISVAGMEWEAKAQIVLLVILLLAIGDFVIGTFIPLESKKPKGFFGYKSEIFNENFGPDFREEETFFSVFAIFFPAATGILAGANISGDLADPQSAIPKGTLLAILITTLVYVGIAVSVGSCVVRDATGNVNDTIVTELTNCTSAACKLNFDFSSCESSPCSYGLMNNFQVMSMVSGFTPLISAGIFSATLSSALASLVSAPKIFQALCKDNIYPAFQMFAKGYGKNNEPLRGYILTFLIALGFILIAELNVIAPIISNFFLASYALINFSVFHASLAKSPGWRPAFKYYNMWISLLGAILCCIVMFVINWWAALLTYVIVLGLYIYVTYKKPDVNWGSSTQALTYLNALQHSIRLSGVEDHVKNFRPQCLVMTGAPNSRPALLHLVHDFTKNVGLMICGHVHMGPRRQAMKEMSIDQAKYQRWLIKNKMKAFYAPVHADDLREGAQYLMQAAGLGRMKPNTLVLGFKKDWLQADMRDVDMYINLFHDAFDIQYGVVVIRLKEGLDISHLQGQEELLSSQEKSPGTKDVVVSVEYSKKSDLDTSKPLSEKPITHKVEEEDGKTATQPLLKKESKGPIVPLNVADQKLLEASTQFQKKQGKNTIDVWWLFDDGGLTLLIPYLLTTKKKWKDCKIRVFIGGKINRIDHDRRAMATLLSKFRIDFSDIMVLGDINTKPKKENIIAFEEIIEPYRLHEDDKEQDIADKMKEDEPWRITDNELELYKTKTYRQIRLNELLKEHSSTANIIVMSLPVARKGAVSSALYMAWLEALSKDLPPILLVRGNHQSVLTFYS

hNKCC2 isoform F = conditions: Xenopus oocytes; ref Payne et al.[57]; Isenring et al.[58]; Plata et al.[59]; Carota et al.[56]; Lykke et al.[60]; Lykke et al.[29]; read-out: IC50 (µM) NKCC2 (hF); cited from earlier work

## CCCCNc1cc(C(=O)O)cc(S(N)(=O)=O)c1Oc1ccccc1 [Bumetanide]
hNKCC1B
  IC50: 0.842 µM
hNKCC2 isoform B
  IC50: 0.22 µM
[1]
  plasma protein binding: > 95%
hNKCC1A
  IC50: 0.68 µM
hNKCC2 isoform F
  IC50: 0.16 µM
